Some test systems named below: K562; SNB-75; CAKI-1; CCRF-CEM; EKVX; T47D; HOP-62; NCI-H460; U-251; HCT-15; HT-29; OVCAR-5; 786-0; SF-295; HCT-116; MDA-MB-435; IGROV-1; SR; OVCAR-4; NCI-H522.
Common to all, as to assay: NCI tumour cell line growth inhibition, 48 h

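Assay format: 96-well plates, 48-hour exposure. GI50: concentration for 50% inhibition of growth.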 Active and inactive are the calls of the source. No stated cut-off is given here; in the data, active = GI50 up to about 1.1 µM and inactive = higher. Non-standard residues stand in square brackets, D forms with d. Residues, ends and D or L forms follow the SMILES beside them. ξ: configuration not given here. *: point of attachment. ξF = NC(Cc1ccccc1)C(=O)O; Cbz = O=C(OCc1ccccc1)*

Regarding `CC(=O)C1COC(O)C1C` (stereo not drawn), the GI50 with K562 is 26.5 µM (inactive); in the experiment with SNB-75 it was 23.3 µM (inactive); with CAKI-1, 22.8 µM (inactive); with CCRF-CEM it was 13.5 µM (inactive); in the experiment with EKVX, 38 µM (inactive); in the experiment on T47D, 35.2 µM (inactive). Besides, the GI50 with HOP-62 was 16.3 µM (inactive); in the experiment with NCI-H460, 18.3 µM (inactive); in the experiment with U-251, 23.4 µM (inactive); in the experiment on HCT-15 it was 18.5 µM; in the experiment with HT-29 it was 29.4 µM (inactive); with OVCAR-5 it was 27.2 µM (inactive). Also, the GI50 in the experiment with 786-0 is 21.3 µM (inactive); in the experiment on SF-295, 26.1 µM (inactive); in the experiment on HCT-116 it was 18.4 µM (inactive); in the experiment with MDA-MB-435 it was 16.1 µM (inactive); in the experiment on IGROV-1, 17.2 µM (inactive); in the experiment on SR, 11.5 µM (inactive).

With `C=C1c2nc3ccccc3n2C=C(c2ccc(Cl)cc2)N1c1ccc(OCCN2CCOCC2)cc1`, the GI50 is 9.82 µM (inactive) with K562; 12.1 µM (inactive) with OVCAR-4; > 100 µM (inactive) in the experiment on SNB-75; 21.4 µM (inactive) in the experiment with T47D; 52.6 µM (inactive) in the experiment on HOP-62; 5.47 µM (inactive) in the experiment on NCI-H460. For the same compound, the GI50 in the experiment with U-251 was 30.5 µM (inactive); with HCT-15, 12.7 µM; in the experiment on HT-29 it was 12.2 µM (inactive); with OVCAR-5, > 100 µM (inactive); in the experiment on 786-0, 25.2 µM (inactive); in the experiment on HCT-116, 26.2 µM (inactive). Moreover, the figures for the GI50 in the experiment with MDA-MB-435, with IGROV-1 and in the experiment on SR were 12.6 µM (inactive), 14.5 µM (inactive) and 12 µM (inactive), respectively.

As to `CC(=O)O[C@H]1CCC2[C@@H]3CCC4Nc5oncc5C[C@]4(C)C3CC[C@@]21C` (stereo partly drawn), the GI50 in the experiment with K562 is > 10 µM (inactive); with OVCAR-4 it was > 10 µM (inactive); in the experiment with CAKI-1, > 10 µM (inactive); in the experiment with CCRF-CEM, 3.67 µM (inactive); in the experiment on T47D it was > 10 µM (inactive); with HOP-62 it was > 10 µM (inactive). Besides, the GI50 with NCI-H460 is > 10 µM (inactive); in the experiment on U-251, > 10 µM (inactive); in the experiment on HCT-15, more than 10 µM; with HT-29 it was > 10 µM (inactive); in the experiment with OVCAR-5, > 10 µM (inactive); with 786-0, 6.5 µM (inactive). Further, the GI50 in the experiment with SF-295 was > 10 µM (inactive); in the experiment with HCT-116 it was 6.49 µM (inactive); in the experiment on MDA-MB-435, > 10 µM (inactive); in the experiment with IGROV-1, > 10 µM (inactive); with SR, > 10 µM (inactive).

Take `CSc1nc(SC)c2ncn(C3CC(Oc4ccc(C)cc4)C(COc4ccc(C)cc4)O3)c2n1` (stereo not drawn): the GI50 was > 100 µM (inactive) in the experiment with NCI-H522; > 100 µM (inactive) with OVCAR-4; 26.5 µM (inactive) in the experiment with SNB-75; > 100 µM (inactive) with CAKI-1; > 100 µM (inactive) in the experiment on CCRF-CEM; > 100 µM (inactive) in the experiment with EKVX. The GI50 with T47D was 63.1 µM (inactive); in the experiment on HOP-62 it was > 100 µM (inactive); in the experiment on NCI-H460 it was > 100 µM (inactive); in the experiment with U-251, > 100 µM (inactive); in the experiment with HCT-15, more than 100 µM; in the experiment with HT-29 it was > 100 µM (inactive). Further, the GI50 in the experiment on OVCAR-5, in the experiment on 786-0, with SF-295, in the experiment with HCT-116, in the experiment with MDA-MB-435 and in the experiment with IGROV-1 was > 100 µM (inactive) throughout.

`Cc1ccc(-n2cc(-c3ccc(Cl)cc3)c3c(NNC(=S)NCc4ccccc4)ncnc32)cc1`: the GI50 with K562 was 4.99 µM (inactive); in the experiment on NCI-H522, 4.53 µM (inactive); with OVCAR-4, 17.5 µM (inactive); with CAKI-1 it was 5.46 µM (inactive); with CCRF-CEM, 2.77 µM (inactive); in the experiment on EKVX, 13.1 µM (inactive). Moreover, the GI50 with T47D was 24.8 µM (inactive); in the experiment with HOP-62, 16.6 µM (inactive); with NCI-H460 it was 2.07 µM (inactive); in the experiment on U-251 it was 5.36 µM (inactive); in the experiment on HCT-15 it was 6.08 µM; with HT-29, 14.3 µM (inactive). The GI50 in the experiment on OVCAR-5 was 11.3 µM (inactive); in the experiment with 786-0 it was 9.77 µM (inactive); in the experiment with SF-295 it was 6.76 µM (inactive); in the experiment with HCT-116, 4.66 µM (inactive); in the experiment with MDA-MB-435 it was 8.02 µM (inactive); with IGROV-1 it was 12.2 µM (inactive). Also, the GI50 with SR is 3.61 µM (inactive).

Regarding `Cc1cc(O)c2c3c(ccc2c1)C(=O)c1c(O)cccc1C3=O` [TETRANGULOL], the GI50 was 18.6 µM (inactive) in the experiment with K562; 0.957 µM (active) in the experiment with NCI-H522; 4.57 µM (inactive) in the experiment on OVCAR-4; > 100 µM (inactive) in the experiment with CAKI-1; 30.1 µM (inactive) with CCRF-CEM; 7.14 µM (inactive) with EKVX. For the same compound, the GI50 with T47D is 5.14 µM (inactive); in the experiment on HOP-62 it was 16.3 µM (inactive); in the experiment on NCI-H460 it was 0.653 µM (active); with U-251, 21 µM (inactive); with HCT-15, 1.92 µM; in the experiment with HT-29, 8.15 µM (inactive). In addition, the GI50 in the experiment on OVCAR-5 was > 51.3 µM (inactive); in the experiment on 786-0, 7.46 µM (inactive); in the experiment on SF-295, 17.4 µM (inactive); in the experiment with HCT-116 it was 11.2 µM (inactive); in the experiment with MDA-MB-435, 0.179 µM (active); with IGROV-1 it was 2.21 µM (inactive). In addition, the GI50 in the experiment with SR was 1.36 µM (inactive).

Consider `CC(C)(CO)NC(=O)c1cccs1`, for which the GI50 in the experiment on K562, in the experiment on NCI-H522, in the experiment on OVCAR-4, in the experiment on CAKI-1, in the experiment with CCRF-CEM and in the experiment on EKVX was > 100 µM (inactive) each time. Further, the GI50 is > 100 µM (inactive) with T47D; > 100 µM (inactive) with HOP-62; > 100 µM (inactive) in the experiment with NCI-H460; > 100 µM (inactive) with U-251; more than 100 µM with HCT-15; > 100 µM (inactive) with HT-29. The GI50 in the experiment with OVCAR-5, with 786-0, in the experiment on SF-295, in the experiment on HCT-116, with MDA-MB-435 and with IGROV-1 was > 100 µM (inactive) throughout. The GI50 with SR was > 100 µM (inactive).

As to `CN(C)c1cccc(-c2cc(=S)c3cc4c(cc3[nH]2)OCO4)c1`, the GI50 in the experiment with NCI-H522 was 12.6 µM (inactive); in the experiment with OVCAR-4 it was > 100 µM (inactive); in the experiment on CAKI-1, 11.1 µM (inactive); in the experiment with CCRF-CEM, 4.26 µM (inactive); in the experiment on EKVX, 7.62 µM (inactive); in the experiment with T47D it was 6.87 µM (inactive). Also, the GI50 is > 27.5 µM (inactive) in the experiment on HOP-62; 4.59 µM (inactive) with NCI-H460; > 20.7 µM (inactive) in the experiment on U-251; 4.74 µM in the experiment on HCT-15; 6.24 µM (inactive) in the experiment with HT-29; > 64.9 µM (inactive) with OVCAR-5. Moreover, the GI50 in the experiment with 786-0 was 6.07 µM (inactive); with SF-295 it was 4.6 µM (inactive); in the experiment on HCT-116, 5.74 µM (inactive); with MDA-MB-435, 1.76 µM (inactive); in the experiment on IGROV-1, 6.38 µM (inactive); in the experiment with SR, 4.95 µM (inactive).

As to `CCOC(=O)CNC(=O)C(Cc1ccccc1)NC(=O)OCc1ccccc1` (stereo not drawn) (Cbz-[ξF]-Gly-OEt), the GI50 with K562 was > 100 µM (inactive); in the experiment with SNB-75 it was > 100 µM (inactive); with CCRF-CEM, > 100 µM (inactive); in the experiment on EKVX it was > 100 µM (inactive); in the experiment with T47D it was 71.9 µM (inactive); in the experiment on HOP-62, > 100 µM (inactive). The GI50 in the experiment with NCI-H460 is > 100 µM (inactive); in the experiment with U-251 it was > 100 µM (inactive); with HCT-15, more than 100 µM; with HT-29, > 100 µM (inactive); with OVCAR-5, > 100 µM (inactive); in the experiment with 786-0, > 100 µM (inactive). Moreover, the GI50 in the experiment with SF-295, in the experiment on HCT-116, in the experiment on MDA-MB-435, with IGROV-1 and in the experiment on SR was > 100 µM (inactive) each time.

Consider `O=C1CC(C(=O)O)Cc2c(Br)ccc(O)c21` (stereo not drawn), for which the GI50 was > 100 µM (inactive) in the experiment on K562; > 100 µM (inactive) in the experiment with NCI-H522; > 100 µM (inactive) in the experiment on OVCAR-4; > 100 µM (inactive) in the experiment on CAKI-1; > 100 µM (inactive) in the experiment with CCRF-CEM; 78.2 µM (inactive) in the experiment with EKVX. Also, the GI50 with T47D is > 100 µM (inactive); in the experiment on HOP-62, > 100 µM (inactive); in the experiment with NCI-H460, > 100 µM (inactive); with U-251 it was > 100 µM (inactive); with HCT-15, more than 100 µM; with HT-29, > 100 µM (inactive). Also, the GI50 in the experiment on OVCAR-5, with 786-0, in the experiment on SF-295, in the experiment with HCT-116, in the experiment with MDA-MB-435 and in the experiment with IGROV-1 was > 100 µM (inactive) throughout. In addition, the GI50 with SR was 43.7 µM (inactive).

In the case of `COCOc1cc(OC)ccc1C/C=N/O`, the GI50 with K562, with NCI-H522, with OVCAR-4, in the experiment with CAKI-1, in the experiment on CCRF-CEM and with EKVX was > 100 µM (inactive) each time. Moreover, the GI50 in the experiment with T47D was > 100 µM (inactive); with HOP-62, > 100 µM (inactive); in the experiment with NCI-H460, > 100 µM (inactive); with U-251, > 100 µM (inactive); in the experiment on HCT-15 it was more than 100 µM; with HT-29, > 100 µM (inactive). Also, the GI50 with OVCAR-5, with 786-0, with SF-295, with HCT-116, with MDA-MB-435 and with IGROV-1 was > 100 µM (inactive) each time. In addition, in the experiment on SR, the GI50 is > 100 µM (inactive).

Source of the values: ChEMBL document CHEMBL1201862, “PubChem BioAssay data set” (2004).
